Article PMC4589238, “Acute Biphasic Effects of Ayahuasca” (PLoS ONE, 2015)
Read-outs that look alike come from different tables or passages of the source.

Key:
rats = tested on: rats; design: method as in PMID 9649961; details: cited from earlier work
[1] = Plasma concentrations of ayahuasca compounds and metabolites after oral ayahuasca (LC/MS/MS); type: in vivo, human; design: AUC (mean ± sd): unit not given here; details: for Cmax: po; for Time to reach plateau of plasma level in the group average: from ayahuasca ingestion, group average curve
Text: A sample of six liters of "Hoasca" was donated by the União do Vegetal (UDV) church in Brazil for the specific purpose of use in this study. Quantification of the main compounds in the brew was done with liquid chromatography-electrospray ionization-tandem mass spectrometry (LC/MS/MS). The screening included the following compounds: DMT, DMT‐N‐oxide (DMT-NO), N‐methyltryptamine (NMT), indoleacetic acid (IAA), 5‐hydroxy‐DMT (5-OH-DMT, or bufotenin), 5‐methoxy‐DMT (5-MeO-DMT), Harmine, Harmol, Harmaline, Harmalol, THH, 7‐hydroxy‐tetrahydroharmine (THH-OH), and 2‐methyl‐tetrahydro‐beta‐carboline (2-MTHBC). The original liquid volume was then reduced to 50% using a rotary evaporator to decrease the amount of liquid intake.
Blood was collected in sterile EDTA containing tubes. Ten blood samples (3 mL each) were collected every 25 minutes, starting 25 minutes before ayahuasca ingestion and ending 200 minutes after ingestion (in a total of ten samples for each individual). Blood was collected by a professional nurse, with a catheter that remained in place during the entire time of the study. Each tube was carefully and slowly turned upside-down three times and then stored at 0°C until all ten samples were collected. Blood samples were then centrifuged at 2000 rpm for 10 min at 4°C and the resulting plasma immediately collected and frozen at -80°C. The frozen plasma samples were stored at -80°C until shipped on dry ice to USA for analysis according to [31]. Compounds included in this screening were DMT, DMT-NO, NMT, IAA, 5-OH-DMT (bufotenin), 5-MeO-DMT, Harmine, Harmol, Harmaline, Harmalol, THH, THH-OH and 2-MTHBC.
Two volunteers opted out of blood collection, and data from one volunteer was discarded due to high hemolysis in the blood samples. Therefore data were available from 16 volunteers. Maximum plasma Concentration (Cmax), Time for maximum plasma concentration (Tmax) and area under the curve (AUC) of ten identified compounds are summarized in Table 2. […] No significant differences were found between men and women for any of the identified compounds in blood. […] There were no significant correlations between time to vomit and Cmax or AUC.

healthy volunteers = assay: Association between plasma concentration and EEG spectral changes (generalized linear models); type: in vivo, human; details: for Clusters between plasma concentration and EEG spectra: delta, theta and beta frequency bands; for Cohen's d, plasma concentration vs fast-gamma power increase: one large widespread bilateral cluster
Method: Relationships between plasma concentration of identified compounds and spectral changes in the six frequency bands evaluated were calculated by fitting generalized linear models (glmfit function in MATLAB) for each compound and frequency band. This analysis was followed by the non-parametric cluster based correction with 5000 permutations.
Results were considered statistically significant when p <0.05. Effect sizes are also reported, using Partial eta squared (partial η^2) for the main frequency clusters and Cohen’s d for the generalized linear models.

MAO-A = tested on: MAO-A; design: method as in PMID 19879939; details: cited from earlier work
human subjects = details: cited from earlier work
5HT-2A receptors = details: cited from earlier work
[2] = cited from earlier work
[3] = plasma, 16 volunteers, oral ayahuasca

Question: Which “Substitution in drug discrimination” value (rats) does the source give for COc1ccc2c3c([nH]c2c1)C(C)=NCC3 [Harmaline] here?
Answer: substitute the psychedelic DOM

Question: What about the Cmax ([1]; both sexes, human, in vivo, plasma, 16 volunteers, oral ayahuasca, sampling to 200 min, read-out: Cmax (mean ± sd)) of the same compound?
Answer: 14.7 ± 13.9 ng/mL

Question: And the Cmax ([1]; both sexes, human, in vivo, plasma, 16 volunteers, oral ayahuasca, read-out: Cmax (min—max))?
Answer: 1.56 to 44.4 ng/mL

Question: And the Tmax ([1]; both sexes, human, in vivo, plasma, 16 volunteers, oral ayahuasca, read-out: Tmax (mean ± sd) (converted))?
Answer: 2.68 h

Question: And the “Time to reach plateau of plasma level in the group average” value [1]?
Answer: 100 min

Question: What about the “AUC (min—max)” value [1, 3] of the same compound?
Answer: 6.16 to 199.78 g·min/mL

Question: And the “Clusters between plasma concentration and EEG spectra” value (healthy volunteers)?
Answer: did not show any significant clusters

Question: What about the “Cohen's d, plasma concentration vs alpha band power decrease” value (“Cohen's d … vs alpha band power decrease” for short) (healthy volunteers; left centro-parieto-occipito-frontal electrodes) of the same compound?
Answer: 0.0285

Question: What about the “Cohen's d, plasma concentration vs slow-gamma power increase” value (“Cohen's d … vs slow-gamma power increase” for short) (healthy volunteers; left fronto-temporo-centro-parieto-occipital electrodes also extending to right temporo-parietal electrodes) of the same compound?
Answer: 0.0885

Question: What about the “Cohen's d, plasma concentration vs fast-gamma power increase” value (healthy volunteers) of the same compound?
Answer: 0.0032

Question: What about the “Cohen's d … vs alpha band power decrease” value (healthy volunteers; right central electrodes (C2, C4, CP4 and CP6)) of the same compound?
Answer: 0.2944

Question: And the “Cohen's d … vs slow-gamma power increase” value (healthy volunteers; right frontal electrodes)?
Answer: 0.0401

Question: And the “Potency at inhibiting MAO-A relative to MAO-B” value (MAO-A)?
Answer: 10,000 fold

Question: And the “Dose necessary for psychoactivity” value (human subjects; oral or i.v. administration)?
Answer: 4 mg/kg

Question: What about the Orally psychoactive dose (human subjects; oral) of the same compound?
Answer: 300 to 400 mg

Question: For COc1ccc2c3c([nH]c2c1)[C@@H](C)NCC3 [THH, tetrahydroharmine], which “Affinity for 5HT-2A receptors” value (5HT-2A receptors) is on record?
Answer: moderate affinity

Question: And the “Recovery in 24 h urine as THH and THH-OH” value ([2]; after ingestion of ayahuasca)?
Answer: 9%

Question: What about the Half-life [2] of the same compound?
Answer: ~9 h

Question: And the “Time to reach plateau of plasma level in the group average” value [1]?
Answer: 150 min

Question: What about the “AUC (mean ± sd)” value [1, 3] of the same compound?
Answer: 1262.09 ± 1270.39

Question: And the “AUC (min—max)” value [1, 3]?
Answer: 75.01 to 3762.73 g·min/mL

Question: What about the “Cmax (min—max)” value [1, 3] of the same compound?
Answer: 22.62 to 895.70 ng/mL

Question: And the “Tmax (mean ± sd)” value [1, 3]?
Answer: 190.63 ± 42.70 min

Question: And the “Cmax (mean ± sd)” value ([1]; plasma, 16 volunteers, oral ayahuasca, sampling to 200 min)?
Answer: 328.76 ± 324.86 ng/mL

Question: What about the “Cohen's d … vs slow-gamma power increase” value (healthy volunteers; bilateral parieto-occipital cluster) of the same compound?
Answer: 0.0656

Question: And the “Clusters between plasma concentration and EEG spectra” value (healthy volunteers)?
Answer: did not show any significant clusters

Question: What about the “Cohen's d … vs alpha band power decrease” value (healthy volunteers; left fronto-centro-parieto-occipital cluster extending to some right centro-parietal electrodes) of the same compound?
Answer: 0.0044

Question: What about the “Cohen's d … vs slow-gamma power increase” value (healthy volunteers; left fronto-temporo-central electrodes) of the same compound?
Answer: 0.0795

Question: What about the “Cohen's d, plasma concentration vs fast-gamma power increase” value (healthy volunteers) of the same compound?
Answer: 0.0501

Question: And the “Cohen's d … vs slow-gamma power increase” value (healthy volunteers; right frontal electrodes)?
Answer: 0.0366
